Source: US8609695B2, “Methods of treating and/or suppressing insulin resistance” (Endorecherche, Inc., priority 1999, dated 2013)
Marks after values point to notes of the source that are not given here.

How the values were obtained:
[1] = test system: human endometrial adenocarcinoma Ishikawa cells; assay: Alkaline phosphatase activity in Ishikawa cells (Example 11); assay type: cell-based; details: for Stimulation of alkaline phosphatase by tested compounds % of 1 nM E2 stimulation: Ishikawa cells, five days incubation, intrinsic estrogenic activity, hydrochloride
Method: The human Ishikawa cell line derived from a well differentiated endometrial adenocarcinoma was kindly provided by Dr. Erlio Gurpide, The Mount Sinai Medical Center, New York, N.Y. The Ishikawa cells were routinely maintained in Eagle's Minimum Essential Medium (MEM) containing 5% (vol/vol) FBS and supplemented with 100 U/ml penicillin, 100 μg/ml streptomycin, 0.1 mM Non-essential Amino Acids solution. Cells were plated in Falcon T75 flasks at a density of 1.5×10^6 cells at 37 C.
Twenty four hours before the start of an experiment, the medium of near confluent Ishikawa cells was replaced by fresh estrogen-free basal medium (EFBM) consisting of a 1:1 (v:v) mixture of phenol red-free Ham's F-12 and Dulbecco's Modified Eagle's Medium (DMEM) supplemented with 100 U/mL penicillin, 100 μg/mL Streptomycin, 2 mM glutamine, and 5% FBS treated twice with dextran-coated charcoal to remove endogenous steroids. Cells were then harvested by 0.1% pancreatin (Sigma) and 0.25 mM HEPES, resuspended in EFBM and plated in Falcon 96 well flat-bottomed microtiter plates at a density of 2.2×10^4 cells/well in a volume of 100 μl and allowed to adhere to the surface of the plates for 24 h. Thereafter, medium was replaced with fresh EFBM containing the indicated concentrations of compounds in a final volume of 200 μl. Cells were incubated for five days, with a medium change after 48 h.
At the end of the incubation period, microtiter plates were inverted and growth medium was decanted. The plates were rinsed with 200 μL by well of PBS (0.15M NaCl, 10 mM sodium phosphate, pH 7.4). PBS was then removed from the plates while carefully leaving some residual PBS, and the wash procedure was repeated once. The buffered saline was then decanted, and the inverted plates were blotted gently on a paper towel. Following replacement of the covers, the plates were placed at −80 C for 15 min followed by thawing at room temperature for 10 min. The plates were then placed on ice, and 50 μl of an ice-cold solution containing 5 mM p-nitrophenyl phosphate, 0.24 mM MgCl2, and 1 M diethanolamine (pH 9.8) was added. Plates were then warmed to room temperature, and the yellow color from the production of p-nitrophenyl was allowed to develop (8 min). Plates were monitored at 405 nm in an enzyme-linked immunosorbent assay plate reader (BIO-RAD, model 2550 EIA Reader).
Dose-response curves as well as IC50 values were calculated using a weighted iterative nonlinear squares regression.

[2] = test system: ovariectomized rats; assay: 20-day treatment with EM-652.HCl, body fat, body weight and energy balance (Example 3); assay type: in vivo, rat; details: 20 days
Method: Eight to ten week-old female Sprague-Dawley rats (Crl:CD(SD)Br) (Charles River Laboratory, St-Constant, Canada) weighing approximately 200-225 g at the start of treatment were used. The animals were acclimatized to the environmental conditions (temperature: 22±3° C.; 10-h light-14-h dark cycles, lights on at 06:00 h) for 1 week before starting the experiment. The animals were housed individually in stainless steel cages of conventional design and were allowed free access to tap water and a high carbohydrate mixed diet composed of (g/100 g): Corn starch, 31.2; Dextrose, 31.2; Casein, 20.0; corn oil, 6.4; dl-Methionine, 0.3; Vitamine mix, 1.0; AIN-76 mineral mix, 4.9 and fiber, 5.0. The experiment was conducted in a Canadian Council on Animal Care approved facility in accordance with the CCAC Guide for Care and Use of Experimental Animals.
On day 1 of the study, the animals of the appropriate groups were bilaterally ovariectomized (OVX) under isoflurane anesthesia. […] The treatment with EM-652.HCl or vehicle alone (0.4% methylcellulose in water) was initiated on day 2 of the study. The compound or vehicle was given once daily by oral gavage in 0.5 ml/rat for 20 days. Body weights and food consumption were recorded every 2 days.
Approximately 24 hours after the last dosing, overnight fasted animals were anesthesized with ketamine-xylazine and blood drawn by cardiac puncture. The blood was collected as well as white and brown adipose tissues.
Body weight, food intake, and body gains in energy, fat, and protein were determined according to Deshaies et al, Am. J. Physiol., 1997; 273, E355-E362 (1997).
Lipoprotein lipase activities were determined according to Deshaies et al, Am. J. Physiol., 1997; 273, E355-E362 (1997).

[3] = test system: human breast cancer MCF-7 cells; assay: Proliferation of MCF-7 cell line, DNA content (Example 12); assay type: cell-based
Source text: MCF-7 human breast cancer cells were obtained from the American Type Culture Collection # HTB 22 at passage 147 and routinely grown in phenol red-free Dulbecco's Modified Eagle's-Ham's F12 medium, the supplements mentioned above and 5% FBS. The MCF-7 human breast adenocarcinoma cell line was derived from the pleural effusion of a patient. MCF-7 cells were used between passages 148 and 165 and subcultured weekly.
Cells in their late logarithmic growth phase were harvested with 0.1% pancreatin (Sigma) and resuspended in the appropriate medium containing 50 ng bovine insulin/ml and 5% (v/v) FBS treated twice with dextran-coated charcoal to remove endogenous steroids. Cells were plated in 24-well Falcon plastic culture plates (2 cm2/well) at the indicated density and allowed to adhere to the surface of the plates for 72 h. […] Control cells received only the ethanolic vehicle (0.1% EtOH,v/v). Cells were incubated for the specified time intervals with medium changes at 2- or 3-day intervals. Cell number was determined by measurement of DNA content.
Dose-response curves as well IC50 values were calculated using a weighted iterative nonlinear least-squares regression. All results are expressed as means±SEM.

[4] = OVX rats, EM-652.HCl 0.5 mg/rat oral once daily, E2 implant

CC1=C(c2ccc(O)cc2)[C@H](c2ccc(OCCN3CCCCC3)cc2)Oc2cc(O)ccc21.Cl [EM-652.HCl, (S)-(+)-7-hydroxy-3-(4′-hydroxyphenyl)-4-methyl-2-(4″-(2′″-piperidino-ethoxy)phenyl)-2H-1-benxopyran hydrochloride]
IC50 ([1]; Homo sapiens, Ishikawa, 120 h, read-out: Inhibition of 1 nM E2 stimulation of alkaline phosphatase by tested compounds IC50): 1.52 ± 0.22 nM | Stimulation of alkaline phosphatase by tested compounds % of 1 nM E2 stimulation [1]: do not show significant estrogenic activity | Stimulation of alkaline phosphatase by tested compounds % of 1 nM E2 stimulation ([1]; listed as EM-652•HCl): 1.88 ± 0.26 (22) % of 1 nM E2 stimulation | Ovx-induced increase in energy intake [2]: completely prevented | Ovx-induced insulin resistance (fasting hyperinsulinemia and hyperglycemia) ([2]; FIG. 5): prevented | decrease in soleus muscle lipoprotein lipase by Ovx ([2]; FIG. 8): prevented | soleus weight increase by Ovx ([2]; FIG. 8): prevented | OVX increase in mass of inguinal and retroperitoneal adipose tissues ([2]; FIGS. 6A and 6C): completely abolished | body weight gain after ovariectomy ([2]; OVX rats, FIG. 2A): completely reversed | protein gain ([2]; OVX rats, FIG. 2B): less accentuated | fat gain after ovariectomy ([2]; OVX rats, FIG. 2C): completely reversed | Cumulative food intake ([2]; OVX rats, FIG. 3): lower than that of intact animals | increase in body energy from proteins following ovariectomy ([2]; OVX rats, FIG. 4A): completely reversed | increase in body energy from fat following ovariectomy ([2]; OVX rats, FIG. 4B): completely reversed | interscapular brown adipose tissue weight, protein content and lipoprotein lipase activity ([2]; OVX rats, FIG. 7): completely reversed | Digestible energy intake [2, 4]: 4479^b kJ | Enegery gain [2, 4]: 278^b kJ | Apparent energy (expenditure) ([2]; OVX rats, calculated from energy intake and energy gain): 4201^b kJ | Food efficiency ([2]; OVX rats, kJ deposited per 100 kJ ingested): 5.9b % | IC50 ([3]; Homo sapiens, MCF7, read-out: Inhibition of 1 nM E2 stimulation of DNA by tested compounds IC50): 0.796 nM | EC50 ([3]; Homo sapiens, MCF7, MCF-7 cells, text summary of table 12, read-out: EC50 of inhibition (antiestrogen activity)): 0.8 nM | Stimulation of DNA by tested compounds % of 1 nM E2 stimulation ([3]; MCF-7 cells, absence of E2): N.S.
